Assay results as given in patent publication US12338236B2, “Benzoisothiazole and benzoisoxazole compounds for the treatment of mental disorders” (SUVEN LIFE SCIENCES LIMITED, priority 2022, dated 2025).
Where a name gives a salt, the structure may show the parent alone.

Assays:
DOPA levels in striatum = experiment: Reserpine-induced DOPA accumulation; type: in vivo, Male Wistar rats; settings: rats, s.c.
Protocol: Example-53: Reserpine-Induced DOPA Accumulation
Male Wistar rats were pretreated with reserpine (5 mg/kg, s.c.) approximately 18 h before sacrifice and were thereafter fasted until sacrifice. Example-2 (3 mg/kg, p.o.) and (3-(3-hydroxyphenyl)-N-n-propylpiperidine (3-PPP); 30 mg/kg, s.c.) were administered 1.16 h and 1 h, respectively before sacrifice. Haloperidol (0.5 mg/kg, s.c.) was used as a positive control and was dosed 10 min prior to 3-PPP in a separate group of animals. 3-Hydroxybenzylhydrazine dihydrochloride (NSD-1015; 100 mg/kg, s.c.) was then administered 0.5 h before sacrifice. Each rat was sacrificed, brain was removed and then striatum was isolated. The tissue was immediately weighed and homogenized in 0.1 N perchloric acid by means of an ultrasonic disruptor while being cooled in ice. The homogenate was centrifuged at 4° C. at 20,000 g for 15 min. The supernatant was assayed for dihydroxyphenylalanine (DOPA) levels using HPLC-ECD.

human 5-HT1A receptor = target: T1, human 5-HT1A receptor (Homo sapiens, UniProt P08908); experiment: Determination of Ki values at 5-HT1A receptor ([3H]-8-Hydroxy DPAT radioligand binding); settings: h5-HT1A, HEK293-EBNA, [3H]-8-Hydroxy DPAT 0.8 nM
T1 construct: expressed in transfected cells; host or cells: HEK293-EBNA
T1 sequence (P08908 1-422): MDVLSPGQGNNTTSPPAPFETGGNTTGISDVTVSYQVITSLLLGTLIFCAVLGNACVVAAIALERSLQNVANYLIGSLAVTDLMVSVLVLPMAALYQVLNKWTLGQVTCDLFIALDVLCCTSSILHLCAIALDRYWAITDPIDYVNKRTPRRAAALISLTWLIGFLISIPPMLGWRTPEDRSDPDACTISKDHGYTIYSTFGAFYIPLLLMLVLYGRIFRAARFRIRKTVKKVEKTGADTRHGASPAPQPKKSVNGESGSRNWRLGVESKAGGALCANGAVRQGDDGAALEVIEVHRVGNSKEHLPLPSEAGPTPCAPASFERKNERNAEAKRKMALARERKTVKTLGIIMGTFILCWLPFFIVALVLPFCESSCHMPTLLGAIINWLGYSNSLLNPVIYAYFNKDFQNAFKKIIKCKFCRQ
Protocol: Example-43: Determination of Ki Values at 5-HT1A Receptor
• Receptor source: Recombinant mammalian cells (HEK293-EBNA) • Radioligand: [^3H]-8-Hydroxy DPAT (200 Ci/mmol) • Final ligand concentration: 0.8 nM • Non-specific determinant: 0.1 mM U92016A • Reference compound: U92016A • Positive control: U92016A Incubation conditions: Reactions were carried out in buffer with pH 7.4 containing 50 mM Tris-HCl, 0.5 mM EDTA, 10 mM MgSO4, 0.1% Ascorbic acid for 2 h at RT. The reaction was terminated by rapid vacuum filtration onto the glass fiber filters. Radioactivity trapped onto the filters was determined and compared to the control values in order to ascertain any interactions of the test compound(s) with cloned human 5-HT1A receptor binding site.

[1] = target: T2, human histamine H1 receptor (Homo sapiens, UniProt P35367); experiment: Determination of Ki values at histamine H1 receptor ([3H]-Pyrilamine SPA binding); settings: hH1, CHO-K1, [3H]-Pyrilamine 2 nM
T2 construct: expressed in transfected cells; host or cells: CHO-K1
Protocol: Example-48: Determination of Ki values at Histamine H1 receptor
• Receptor source: Recombinant mammalian cells (CHO-K1) • Radioligand: [^3H]-Pyrilamine (20.7 Ci/mmol) • Final ligand concentration: 2 nM • Non-specific determinant: 0.1 mM Pyrilamine • Reference compound: Pyrilamine • Positive control: Pyrilamine Incubation conditions: Reactions were carried out in buffer with pH 7.4 containing 67 mM Tris-HCl and SPA beads (0.1 mg/well) for 1 h at 37° C. Radioactivity proximal to SPA beads was determined by scintillation proximity assay and compared to the control values in order to ascertain any interactions of the test compound(s) with cloned human histamine H1 receptor binding site.

[2] = target: T3, human dopamine D2s receptor (Homo sapiens, UniProt P14416); experiment: Determination of Ki values at D2S receptor ([3H]-Raclopride radioligand binding); settings: hD2 (D2S), CHO-K1, [3H]-Raclopride 4 nM; read-out: Ki D2
T3 construct: expressed in transfected cells; host or cells: CHO-K1
Protocol: Example-45: Determination of Ki Values at D2S Receptor
• Receptor source: Recombinant mammalian cells (CHO-K1) • Radioligand: [^3H]-Raclopride (80.8 Ci/mmol) • Final ligand concentration: 4 nM • Non-specific determinant: 0.1 mM Haloperidol • Reference compound: Haloperidol • Positive control: Haloperidol Incubation conditions: Reactions were carried out in buffer with pH 7.4 containing 50 mM Tris-HCl, 120 mM NaCl, 5 mM KCl, 5 mM MgCl2, 1 mM EDTA for 2 h at RT. The reaction was terminated by rapid vacuum filtration onto the glass fiber filters. Radioactivity trapped onto the filters was determined and compared to the control values in order to ascertain any interactions of the test compound(s) with cloned human dopamine D2s receptor binding site.

human SERT = target: T4, human SERT (Homo sapiens, UniProt P31645); experiment: Determination of Ki values at SERT receptor ([3H]-Citalopram SPA binding); settings: hSERT, HEK293, [3H]-Citalopram 2 nM
T4 construct: expressed in transfected cells; host or cells: HEK293
Protocol: Example-46: Determination of Ki Values at SERT Receptor
• Receptor source: Recombinant mammalian cells (HEK293) • Radioligand: [^3H]-Citalopram (80.8 Ci/mmol) • Final ligand concentration: 2 nM • Non-specific determinant: 0.1 mM Venlafaxine • Reference compound: Venlafaxine • Positive control: Venlafaxine Incubation conditions: Reactions were carried out in buffer with pH 7.4 containing 50 mM Tris-HCl, 150 mM NaCl, 5 mM KCl and Scintillation proximity assay (SPA) beads (0.1 mg/well) for 3 h at RT. Radioactivity proximal to SPA beads was determined by scintillation proximity assay and compared to the control values in order to ascertain any interactions of the test compound(s) with cloned human SERT receptor binding site.

human 5-HT2A receptor = target: T5, human 5-HT2A receptor (Homo sapiens, UniProt P28223); experiment: Determination of Ki values at 5-HT2A receptor ([3H]-Ketanserine radioligand binding); settings: h5-HT2A, CHO-K1, [3H]-Ketanserine 1.25 nM
T5 construct: expressed in transfected cells; host or cells: CHO-K1
Protocol: Example-44: Determination of Ki Values at 5-HT2A Receptor
• Receptor source: Recombinant mammalian cells (CHO-K1) • Radioligand: [^3H]-Ketanserine (41.9 Ci/mmol) • Final ligand concentration: 1.25 nM • Non-specific determinant: 0.1 mM 1-Napthyl piperazine (1-NP) • Reference compound: 1-Napthyl piperazine (1-NP) • Positive control: 1-Napthyl piperazine (1-NP) Incubation conditions: Reactions were carried out in buffer with pH 7.4 containing 50 mM Tris-HCl, 4 mM CaCl2, 0.1% Ascorbic acid for 1 h at RT. The reaction was terminated by rapid vacuum filtration onto the glass fiber filters. Radioactivity trapped onto the filters was determined and compared to the control values in order to ascertain any interactions of the test compound(s) with cloned human 5-HT2A receptor binding site.

[3] = target: T6, human adrenergic α1B receptor (Homo sapiens, UniProt P35368); experiment: Determination of Ki values at adrenergic α1B receptor ([3H]-Prazosin radioligand binding); settings: hα1B, Chem-1 cells, [3H]-Prazosin 1 nM; read-out: Ki Alpha1B
T6 construct: expressed in transfected cells; host or cells: Chem-1
T6 sequence (P35368 1-520): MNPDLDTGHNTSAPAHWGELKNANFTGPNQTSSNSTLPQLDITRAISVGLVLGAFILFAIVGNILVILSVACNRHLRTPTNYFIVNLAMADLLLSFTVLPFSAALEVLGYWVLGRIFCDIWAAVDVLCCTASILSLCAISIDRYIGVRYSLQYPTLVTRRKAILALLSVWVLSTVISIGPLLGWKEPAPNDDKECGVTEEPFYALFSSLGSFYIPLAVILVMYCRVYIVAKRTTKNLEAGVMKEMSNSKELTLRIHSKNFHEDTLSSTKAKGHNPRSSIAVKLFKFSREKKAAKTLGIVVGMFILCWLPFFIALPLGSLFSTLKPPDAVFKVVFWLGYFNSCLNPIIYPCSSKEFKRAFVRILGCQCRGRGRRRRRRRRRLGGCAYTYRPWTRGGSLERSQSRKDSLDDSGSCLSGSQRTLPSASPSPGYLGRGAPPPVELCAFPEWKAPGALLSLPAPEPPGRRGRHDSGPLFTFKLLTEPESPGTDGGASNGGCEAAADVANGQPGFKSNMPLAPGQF
Protocol: Example-47: Determination of Ki Values at Adrenergic α1B Receptor
• Receptor source: Recombinant mammalian cells (Chem-1) • Radioligand: [^3H]-Prazosin (77.4 Ci/mmol) • Final ligand concentration: 1 nM • Non-specific determinant: 0.1 mM Prazosin • Reference compound: Prazosin • Positive control: Prazosin Incubation conditions: Reactions were carried out in buffer with pH 7.4 containing 67 mM Tris-HCl, 67 μM EDTA, […] for 1 h at RT. The reaction was terminated by rapid vacuum filtration onto the glass fiber filters. Radioactivity trapped onto the filters was determined and compared to the control values in order to ascertain any interactions of the test compound(s) with cloned human adrenergic α1B receptor binding site.

T2 sequence (P35367 whole entry): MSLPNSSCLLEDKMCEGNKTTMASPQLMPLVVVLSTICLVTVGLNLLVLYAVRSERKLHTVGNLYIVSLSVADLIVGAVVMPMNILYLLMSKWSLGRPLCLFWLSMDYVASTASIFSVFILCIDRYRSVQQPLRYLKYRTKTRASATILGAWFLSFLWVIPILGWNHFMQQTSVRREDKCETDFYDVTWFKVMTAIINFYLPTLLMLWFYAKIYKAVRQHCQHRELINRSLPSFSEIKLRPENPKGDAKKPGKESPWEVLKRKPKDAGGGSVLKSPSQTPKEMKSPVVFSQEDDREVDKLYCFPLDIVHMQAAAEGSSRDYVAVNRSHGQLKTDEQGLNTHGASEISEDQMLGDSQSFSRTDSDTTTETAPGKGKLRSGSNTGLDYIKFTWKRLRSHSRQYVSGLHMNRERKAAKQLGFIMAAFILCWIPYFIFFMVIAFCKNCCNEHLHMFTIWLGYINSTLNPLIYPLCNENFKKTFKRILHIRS
T5 sequence (P28223 whole entry): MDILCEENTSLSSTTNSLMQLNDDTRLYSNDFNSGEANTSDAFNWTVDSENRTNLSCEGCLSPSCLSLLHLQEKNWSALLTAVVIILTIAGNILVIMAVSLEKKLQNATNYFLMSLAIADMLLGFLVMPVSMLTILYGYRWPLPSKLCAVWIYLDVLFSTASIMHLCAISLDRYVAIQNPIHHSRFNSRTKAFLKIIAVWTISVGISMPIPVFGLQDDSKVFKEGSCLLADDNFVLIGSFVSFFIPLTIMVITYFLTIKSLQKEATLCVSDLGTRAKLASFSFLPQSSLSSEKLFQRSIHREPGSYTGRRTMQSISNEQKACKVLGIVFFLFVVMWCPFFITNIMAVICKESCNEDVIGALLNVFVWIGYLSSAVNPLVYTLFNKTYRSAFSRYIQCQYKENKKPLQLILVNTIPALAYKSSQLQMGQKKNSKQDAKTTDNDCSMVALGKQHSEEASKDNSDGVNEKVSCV
T3 sequence (P14416 1-414 isoform P14416-2): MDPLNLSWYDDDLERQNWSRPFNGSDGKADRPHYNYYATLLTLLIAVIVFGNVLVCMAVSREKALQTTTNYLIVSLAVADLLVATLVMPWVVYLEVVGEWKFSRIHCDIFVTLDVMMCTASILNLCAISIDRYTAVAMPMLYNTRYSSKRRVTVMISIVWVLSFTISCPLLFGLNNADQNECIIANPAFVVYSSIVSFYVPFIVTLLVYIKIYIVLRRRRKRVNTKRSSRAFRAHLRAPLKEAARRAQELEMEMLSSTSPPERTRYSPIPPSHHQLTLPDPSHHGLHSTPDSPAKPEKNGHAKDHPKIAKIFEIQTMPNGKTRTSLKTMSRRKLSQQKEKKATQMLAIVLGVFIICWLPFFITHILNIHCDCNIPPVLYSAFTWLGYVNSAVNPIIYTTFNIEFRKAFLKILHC
T4 sequence (P31645 whole entry): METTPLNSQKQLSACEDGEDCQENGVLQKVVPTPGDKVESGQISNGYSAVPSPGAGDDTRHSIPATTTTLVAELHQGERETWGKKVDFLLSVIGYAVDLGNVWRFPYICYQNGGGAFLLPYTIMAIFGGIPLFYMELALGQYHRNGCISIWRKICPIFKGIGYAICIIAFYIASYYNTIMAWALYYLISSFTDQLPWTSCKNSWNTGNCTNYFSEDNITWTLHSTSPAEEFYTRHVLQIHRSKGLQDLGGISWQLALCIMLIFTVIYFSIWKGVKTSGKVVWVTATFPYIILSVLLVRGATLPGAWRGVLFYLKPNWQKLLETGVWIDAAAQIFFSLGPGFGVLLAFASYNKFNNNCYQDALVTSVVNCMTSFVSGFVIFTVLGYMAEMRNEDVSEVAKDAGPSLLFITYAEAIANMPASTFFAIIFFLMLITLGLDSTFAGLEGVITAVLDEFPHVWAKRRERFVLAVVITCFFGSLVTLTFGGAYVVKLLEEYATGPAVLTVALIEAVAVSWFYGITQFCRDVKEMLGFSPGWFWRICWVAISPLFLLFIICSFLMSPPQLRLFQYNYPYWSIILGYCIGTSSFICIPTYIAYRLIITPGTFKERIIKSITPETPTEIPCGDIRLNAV

Question: `CCCN1CCCC(c2cccc(O)c2)C1` (centres unmarked) [Example 3-PPP, 3-(3-hydroxyphenyl)-N-n-propylpiperidine] was tested. Which “Reversal in reserpine induced DOPA accumulation” value (DOPA levels in striatum; 30 mg/kg, 1 h before sacrifice, striatum) did it give?
Answer: Its value is 77%.

Question: What does the source list for `Cc1nnc(-c2csc(OCCCN3CCN(c4nsc5ccccc45)CC3)n2)o1` [Example-1, 3-(4-{3-[4-(5-Methyl-[1,3,4]oxadiazol-2-yl)-thiazol-2-yloxy]-propyl}-piperazin-1-yl)-benzo[d]isothiazole]?
Answer: Ki (human 5-HT1A receptor): 0.1 nM; Ki [1]: 8.8 nM; Ki [2]: 0.51 nM; Ki (human SERT): 54.3 nM; Ki (human 5-HT2A receptor): 0.35 nM; Ki [3]: 12.5 nM

Question: `Cc1nc(-c2csc(OCCCN3CCN(c4nsc5ccccc45)CC3)n2)no1` [compound 10, 3-(4-{3-[4-(5-Methyl-[1,2,4]oxadiazol-3-yl)-thiazol-2-yloxy]-propyl}-piperazin-1-yl)-benzo[d]isothiazole oxalate] was tested. Which Ki (human 5-HT1A receptor) did it give?
Answer: Its Ki is 0.4 nM.

Question: And the Ki [1]?
Answer: Its Ki is 4.2 nM.

Question: What about the Ki [2] of the same molecule?
Answer: Its Ki is 1.5 nM.

Question: And the Ki (human SERT)?
Answer: Its Ki is 217 nM.

Question: And the Ki (human 5-HT2A receptor)?
Answer: Its Ki is 0.5 nM.

Question: What about the Ki [3] of the same molecule?
Answer: The Ki was 44.1 nM.

Question: Which results are given for `c1ccc2c(N3CCN(CCCOc4ccc(-c5cnco5)cn4)CC3)nsc2c1` [compound 22, 3-{4-[3-(5-Oxazol-5-yl-pyridin-2-yloxy)-propyl]-piperazin-1-yl}-benzo[d]isothiazole oxalate]?
Answer: Ki (human 5-HT1A receptor): 0.3 nM; Ki [1]: 1.8 nM; Ki [2]: 0.4 nM; Ki (human SERT): 18.8 nM; Ki (human 5-HT2A receptor): 0.01 nM; Ki [3]: 5.7 nM

Question: What does the source list for `Cc1nnc(-c2csc(OCCCN3CCC(c4noc5cc(F)ccc45)CC3)n2)o1` [compound 24, 6-Fluoro-3-(1-{3-[4-(5-methyl-[1,3,4]oxadiazol-2-yl)-thiazol-2-yloxy]-propyl}-piperidin-4-yl)-benzo[d]isoxazole oxalate]?
Answer: Ki (human 5-HT1A receptor): 1.8 nM; Ki [1]: 3.5 nM; Ki [2]: 0.7 nM; Ki (human SERT): 1670 nM; Ki (human 5-HT2A receptor): 0.3 nM; Ki [3]: 1.5 nM

Question: For `COC(=O)[C@H]1[C@H]2C[C@@H]3c4[nH]c5cc(OC)ccc5c4CCN3C[C@H]2C[C@@H](OC(=O)c2cc(OC)c(OC)c(OC)c2)[C@@H]1OC` [reserpine], which “Increase in DOPA levels in striatum” value (DOPA levels in striatum; reserpine 5 mg/kg, about 18 h before sacrifice) is on record?
Answer: The value was “about 194%”.
